These results are taken from paper PMC11707430, “Novel antibiotics against Staphylococcus aureus without detectable resistance by targeting proton motive force and FtsH” (MedComm, 2025).

Each structure is given as a SMILES string. Converted amounts (≈) assume the structure as drawn.

Assay [1] has as its system S. aureus. The assay is described as follows: MIC determination by microbroth dilution. Format: cell-based, Staphylococcus aureus. The following applies: for antimicrobial activity (in words): structure-activity relationship of C218-0546 analogs (Figure S1). Here is the method: Minimal inhibitory concentration (MIC) determination. The detection of MIC was performed by the microbroth dilution method with reference to the previously report by Wang et al^2. Briefly, the fresh bacterial suspension was adjusted to a McF standard equivalent of 0.5 (~1.5 × 10^8 CFU/mL) and then 100-fold diluted with MH broth. Fifty microliters of bacterial suspension with equal volume of serially diluted compounds (1-128 µg/mL) were added into a 96-well cell plate (Corning Costar, the United States) and incubated at 37°C for 16-18 h. The bacterial suspension without compounds was used as a negative control. The lowest concentration that inhibited visible bacterial growth was considered as the value of MIC.
A general note: Dilution methods test growth across graded concentrations, often in twofold steps.

Assay [2] has as its system S. aureus ATCC 43300. The assay is described as follows: One-step resistance assay (spontaneous resistance frequency). The class given is cell-based. Conditions: 1◊MIC. The protocol: Resistance inducing assay. Consecutive and one-step resistance experiments were performed to assess the resistance-inducing ability of the compounds against S. aureus. For consecutive resistance assay, the MICs of compounds and ciprofloxacin (CIP) were determined on the first day. […] Subsequently, the equal volume of bacterial suspension was added to the serial concentrations of compounds or CIP into a 96-well plate, the new MICs were recorded every 24h for a total of 15 days. After 15 days of passages, the CIP-induced resistant S. aureus strains were obtained. And the antimicrobial activity of the compounds against the CIP-induced strains were assessed by microdilution assay as described above. For one-step resistance assay, overnight cultured S. aureus was adjusted to a final concentration of approximately OD630=0.5 with sterile saline. One hundred microliters of the bacterial suspension were uniformly spread in pre-prepared MH agar plates containing a specific concentration of compounds. Rifampicin (RFP) was used as a positive control. The viable cells were counted on the plates after incubation at 37°C for 48h. The frequency of spontaneous drug resistance mutation was defined as the ratio of the number of resistant CFU counts to the initial CFU counts^3.

Assay [3] relates to S. aureus. The assay is described as follows: Peritonitis-sepsis model. Format: in vivo, ICR mice. Conditions: single use, i.p., 24 h postinfection, vs vehicle. The protocol: Peritonitis-sepsis model. Six to seven-week-old female ICR mice were included. […] Mice were injected with 500 μL of the suspension in the presence of 5% mucin by i.p.. An hour post-infection, the mice were administered with: 1) EL+ethanol, 2) […]-0546 (30 mg/kg), and 3) STK848198 (30 mg/kg) alone or in combination with ampicillin (AMP, 25 mg/kg)^38 or amikacin (AMK, 25 mg/kg).

Assay [4] concerns S. aureus ATCC 43300. The assay is described as follows: Periprosthetic joint infection (PJI) model. The following applies: day 7, alone or in combination, i.p. The class given is in vivo, ICR mice.

Regarding `Cc1nc2c(C#N)c[nH]n2c(=O)c1Cc1ccccc1` [STK584829], the “antimicrobial activity (in words)” value in the assay on S. aureus [1] is given as “vanished antimicrobial activity”.
The same measure, in the same setting: the result for `Cc1ccc(CNC(=O)c2c[nH]n3c(=O)c(Cc4ccc(Cl)cc4)c(C)nc23)cc1` [C218-0468] reads “did not optimize the MIC values”.
Consider `CO[C@H]1/C=C/O[C@@]2(C)Oc3c(C)c(O)c4c(O)c(c(/C=N/N5CCN(C)CC5)c(O)c4c3C2=O)NC(=O)/C(C)=C\C=C\[C@H](C)[C@H](O)[C@@H](C)[C@@H](O)[C@@H](C)[C@H](OC(C)=O)[C@@H]1C` [RFP, Rifampicin], for which the “Spontaneous resistance frequency (mean±SD)” value with S. aureus ATCC 43300 [2] is given as “(2.83±2.9) ×10^-7”.
With `CCCCCCCCCC(=O)N[C@@H](Cc1c[nH]c2ccccc12)C(=O)N[C@H](CC(N)=O)C(=O)N[C@@H](CC(=O)O)C(=O)N[C@@H]1C(=O)NCC(=O)N[C@@H](CCCN)C(=O)N[C@@H](CC(=O)O)C(=O)N[C@H](C)C(=O)N[C@@H](CC(=O)O)C(=O)NCC(=O)N[C@H](CO)C(=O)N[C@@H]([C@H](C)CC(=O)O)C(=O)N[C@@H](CC(=O)c2ccccc2N)C(=O)O[C@@H]1C` [DAP, daptomycin], the MIC in the assay on S. aureus [1] (ATCC 25923) was found to be 1 µg/mL (≈ 0.617 µM); against S. aureus [1] (ATCC 43300), 1 µg/mL (≈ 0.617 µM); with S. aureus [1] (LZB1) it was 1 µg/mL (≈ 0.617 µM); in the assay with S. aureus [1] (Newman), 2 µg/mL (≈ 1.23 µM); against S. aureus [1] (R0645), 2 µg/mL (≈ 1.23 µM); against S. aureus [1] (R82174) it was 2 µg/mL (≈ 1.23 µM). Also, the MIC in the assay with S. aureus [1] (SA1901) was 1 µg/mL (≈ 0.617 µM); in the assay with S. aureus [1] (SA1902), 1 µg/mL (≈ 0.617 µM); in the assay on S. aureus [1] (SA1909), 1 µg/mL (≈ 0.617 µM); against S. aureus [1] (SA1910), 1 µg/mL (≈ 0.617 µM); against S. aureus [1] (SA1911) it was 2 µg/mL (≈ 1.23 µM); with S. aureus [1] (SA1912), 1 µg/mL (≈ 0.617 µM). The MIC with S. aureus [1] (SA1913) was found to be 1 µg/mL (≈ 0.617 µM); in the assay with S. aureus [1] (SA1914), 2 µg/mL (≈ 1.23 µM); against S. aureus [1] (SA1915), 1 µg/mL (≈ 0.617 µM); against S. aureus [1] (SAJ1 (VISA)) it was 32 µg/mL (≈ 19.7 µM); with S. aureus [1] (USA300), 1 µg/mL (≈ 0.617 µM).
With `Cc1nc2oc3ccccc3c(=O)c2c2nc3ccccc3n12` [STK585953], the “antimicrobial activity (in words)” value with S. aureus [1] was “reduce the antimicrobial ability”.
`CC1(C)S[C@@H]2[C@H](NC(=O)[C@H](N)c3ccccc3)C(=O)N2[C@H]1C(=O)O` [AMP, ampicillin, reference compound]: in the assay with S. aureus [3], the “bacterial loads in organs” value is given as “no statistical difference”. The “bacterial loads in the joint and its surrounding tissue” value with S. aureus ATCC 43300 [4] is listed as “reduce the bacterial loads”.
On to `CN[C@H](CC(C)C)C(=O)N[C@H]1C(=O)N[C@@H](CC(N)=O)C(=O)N[C@H]2C(=O)N[C@H]3C(=O)N[C@H](C(=O)N[C@H](C(=O)O)c4cc(O)cc(O)c4-c4cc3ccc4O)[C@H](O)c3ccc(c(Cl)c3)Oc3cc2cc(c3O[C@@H]2O[C@H](CO)[C@@H](O)[C@H](O)[C@H]2O[C@H]2C[C@](C)(N)[C@H](O)[C@H](C)O2)Oc2ccc(cc2Cl)[C@H]1O` [VAN, vancomycin], for which the MIC came out at 1 µg/mL (≈ 0.69 µM) with S. aureus [1] (ATCC 25923); 1 µg/mL (≈ 0.69 µM) in the assay with S. aureus [1] (ATCC 43300); 1 µg/mL (≈ 0.69 µM) with S. aureus [1] (LZB1); 2 µg/mL (≈ 1.38 µM) in the assay with S. aureus [1] (Newman); 1 µg/mL (≈ 0.69 µM) against S. aureus [1] (R0645); 1 µg/mL (≈ 0.69 µM) in the assay with S. aureus [1] (R82174). In addition, the MIC against S. aureus [1] (SA1901) came out at 1 µg/mL (≈ 0.69 µM); against S. aureus [1] (SA1902), 0.5 µg/mL (≈ 0.345 µM); against S. aureus [1] (SA1909) it was 1 µg/mL (≈ 0.69 µM); against S. aureus [1] (SA1910) it was 1 µg/mL (≈ 0.69 µM); against S. aureus [1] (SA1911) it was 1 µg/mL (≈ 0.69 µM); against S. aureus [1] (SA1912) it was 1 µg/mL (≈ 0.69 µM). In addition, the MIC turned out to be 1 µg/mL (≈ 0.69 µM) against S. aureus [1] (SA1913); 1 µg/mL (≈ 0.69 µM) in the assay with S. aureus [1] (SA1914); 1 µg/mL (≈ 0.69 µM) in the assay with S. aureus [1] (SA1915); 4 µg/mL (≈ 2.76 µM) against S. aureus [1] (SAJ1 (VISA)); 1 µg/mL (≈ 0.69 µM) in the assay with S. aureus [1] (USA300).

For orientation: MIC means the least concentration at which growth counts as inhibited. High values mean a less susceptible organism, low ones a more susceptible organism.
